Counter-ions that a name gives are not always drawn.
| SMILES | melting point [°C] |
| --- | --- |
| CON=C(C)CCc1nc2c(N)nc3ccccc3c2n1CC(C)(C)O [Example 5, 4-[4-Amino-1-(2-hydroxy-2-methylpropyl)-1H-imidazo[4,5-c]quinolin-2-yl]butan-2-one O-methyloxime] | 182 to 184 |
| CONCc1nc2c(N)nc3ccccc3c2n1CC1(O)CCC1 [Example 12, 1-({4-Amino-2-[(methoxyamino)methyl]-1H-imidazo[4,5-c]quinolin-1-yl}methyl)cyclobutanol] | 178 to 181 |
| CON(C)Cc1nc2c(N)nc3cc(OCc4ccccc4)ccc3c2n1CC1CCOCC1 [Example 7, 7-(Benzyloxy)-2-{[methoxy(methyl)amino]methyl}-1-(tetrahydro-2H-pyran-4-ylmethyl)-1H-imidazo[4,5-c]quinolin-4-amine] | 159 to 161 |
| CON(Cc1nc2c(N)nc(C)c(C)c2n1CC(C)C)C(=O)C1CC1 [Example 11, N-[(4-Amino-1-isobutyl-6,7-dimethyl-1H-imidazo[4,5-c]pyridin-2-yl)methyl]-N-methoxycyclopropanecarboxamide] | 135 to 137 |
| CONCc1nc2c(N)nc3cc(OCc4ccccc4)ccc3c2n1CC1CCOCC1 [Example 6, 7-(Benzyloxy)-2-[(methoxyamino)methyl]-1-(tetrahydro-2H-pyran-4-ylmethyl)-1H-imidazo[4,5-c]quinolin-4-amine] | 190 to 193 |
| CON=Cc1nc2c(N)nc3ccccc3c2n1CC(C)C [Example 4, 4-Amino-1-(2-methylpropyl)-1H-imidazo[4,5-c]quinoline-2-carbaldehyde O-methyloxime] | 181 to 183 |
| CON(C)Cc1nc2c(N)nc3ccccc3c2n1CC1(O)CCC1 [Example 13, 1-[(4-Amino-2-{[methoxy(methyl)amino]methyl}-1H-imidazo[4,5-c]quinolin-1-yl)methyl]cyclobutanol] | 219 to 221 |
| CONCc1nc2c(N)nc(C)c(C)c2n1CC(C)C [Example 9, 1-Isobutyl-2-[(methoxyamino)methyl]-6,7-dimethyl-1H-imidazo[4,5-c]pyridin-4-amine] | 154 to 156 |
| CON(C)Cc1nc2c(N)nc(C)c(C)c2n1CC(C)C [Example 10, 1-Isobutyl-2-{[methoxy(methyl)amino]methyl}-6,7-dimethyl-1H-imidazo[4,5-c]pyridin-4-amine] | 132 to 134 |
| CON(Cc1nc2c(N)nc3cc(OCc4ccccc4)ccc3c2n1CC1CCOCC1)S(C)(=O)=O [Example 8, N-{[4-Amino-7-(benzyloxy)-1-(tetrahydro-2H-pyran-4-ylmethyl)-1H-imidazo[4,5-c]quinolin-2-yl]methyl}-N-methoxymethanesulfonamide] | 195 to 197 |

Further lines, results first:

| melting point [°C] | SMILES |
| --- | --- |
| 223 to 226 | CON(C)Cc1nc2c(N)nc3ccccc3c2n1CC1CCOCC1 [Example 20, 2-{[Methoxy(methyl)amino]methyl}-1-(tetrahydro-2H-pyran-4-ylmethyl)-1H-imidazo[4,5-c]quinolin-4-amine] |
| 142 to 144 | CON(C)Cc1nc2cnc3ccccc3c2n1CC1CCOCC1 [Example 18, 2-{[Methoxy(methyl)amino]methyl}-1-(tetrahydro-2H-pyran-4-ylmethyl)-1H-imidazo[4,5-c]quinoline] |
| 255 to 257 | CONCc1nc2c(N)nc3ccccc3c2n1CC(C)(C)O (as salt: hydrochloride) [Example 16, 1-(2-Hydroxy-2-methylpropyl)-2-{[methoxylamino]methyl}-1H-imidazo[4,5-c]quinolin-4-amine; hydrochloride] |
| 58 to 63 | CONCc1nc2cnc3ccccc3c2n1CC1CCOCC1 [Example 17, 2-[(Methoxyamino)methyl]-1-(tetrahydro-2H-pyran-4-ylmethyl)-1H-imidazo[4,5-c]quinoline] |
| 179 to 181 | CO/N=C/c1nc2c(N)nc(C)c(C)c2n1CC(C)C [Example 14, 4-Amino-1-isobutyl-6,7-dimethyl-1H-imidazo[4,5-c]pyridine-2-carbaldehyde O-methyloxime] |
| 169 to 171 | CONCc1nc2c(N)nc3ccccc3c2n1CC1CCOCC1 [Example 19, 2-[(Methoxyamino)methyl]-1-(tetrahydro-2H-pyran-4-ylmethyl)-1H-imidazo[4,5-c]quinolin-4-amine] |
| 220 to 222 | CON(C)Cc1nc2c(N)nc3ccccc3c2n1CC(C)(C)O [Example 15, 1-(2-Hydroxy-2-methylpropyl)-2-{[methoxy(methyl)amino]methyl}-1H-imidazo[4,5-c]quinolin-4-amine] |

Reference: patent US7968563B2, “Oxime and hydroxylamine substituted imidazo[4,5-c] ring compounds and methods” (3M Innovative Properties Company, priority 2005, dated 2011)
